The term IC50 denotes the point on the concentration scale where inhibition reaches its midpoint.

The record followed here is patent US11285135B2 (AMGEN INC., priority 2016, dated 2022).

Like-named read-outs stand apart in the source and are kept apart here. Where only a bound is given, the exact number is not on record here.

Assay [1] addresses GDP-bound protein (aa 1-169), containing both G12C and C118A amino acid substitutions (Homo sapiens, UniProt P01116, C118A/G12C). Nature of the assay: Coupled Nucleotide Exchange Assay (SOS-mediated nucleotide exchange, AlphaScreen). The class given is biochemical. Conditions: 2 hours compound pre-incubation. The procedure, abridged: (§1)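 AlphaScreen signal after SOS (aa 564-1049)/GTP-driven exchange (1 h) on GDP-loaded His-[…] G12C/C118A (aa 1-169), following a 2 h compound pre-incubation in HEPES pH 7.4 buffer with 10 mM MgCl2 and 0.01% Triton X-100. IC50s fitted by 4-parameter logistic model.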
Background: In Alpha technology, singlet oxygen from a donor bead excites a nearby acceptor bead.

Assay [2] deals with Phosphorylation of ERK½ in MIA PaCa-2 cells. Description: Phospho-ERK½ MSD Assay in MIA PaCa-2 cells. The class given is cell-based. Conditions: 4 hours compound treatment, 10 ng/mL EGF for 10 min, read-out: p-ERK IC50 (MIA PaCa-2). The procedure, abridged: (§2)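 MIA PaCa-2 or A549 cells (25,000/well, RPMI with 10% FBS) exposed to compound titration for 4 h at 37 °C, then stimulated with 10 ng/mL EGF for 10 min and lysed in RIPA. Phospho-ERK1/2 quantified by MSD whole-cell lysate immunoassay; IC50 from 4-parameter logistic fit.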

For assay [3], the system named is Phosphorylation of ERK½ in A549 cells. Nature of the assay: Phospho-ERK½ MSD Assay in A549 cells. The class given is cell-based. Conditions: 4 hours compound treatment, 10 ng/mL EGF for 10 min, read-out: p-ERK IC50 (A549). The procedure, abridged: as §2
Assay [4] concerns the target GDP-bound BRAS protein (aa 1-169), containing both G12C and C118A amino acid substitutions (Homo sapiens, UniProt P01116, C118A/G12C). Description: Coupled Nucleotide Exchange Assay (SOS-mediated nucleotide exchange, AlphaScreen). The class given is biochemical. Conditions: 2 hours compound pre-incubation. The procedure, abridged: as §1
[5] abbreviates: Homo sapiens, MIA PaCa-2, MIA PaCa-2 cells.

GDP-bound protein (aa 1-169), containing both G12C and C118A amino acid substitutions, sequence (P01116 1-169 isoform P01116-2 G12C/C118A): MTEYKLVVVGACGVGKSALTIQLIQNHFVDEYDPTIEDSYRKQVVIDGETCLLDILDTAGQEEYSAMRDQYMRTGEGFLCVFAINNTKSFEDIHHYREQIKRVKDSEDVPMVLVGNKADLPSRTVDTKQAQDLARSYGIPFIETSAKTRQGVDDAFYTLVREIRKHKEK
GDP-bound BRAS protein (aa 1-169), containing both G12C and C118A amino acid substitutions, sequence (P01116 1-169 isoform P01116-2 G12C/C118A): as above

For `C=CC(=O)N1CCN(c2nc(=O)n(-c3ccccc3C(C)C)c3cc(-c4c(C)ccc5[nH]ncc45)c(Cl)cc23)[C@@H](C)C1` (single isomer, unassigned) [Example 11-2-2], the “Coupled exchange IC50” value in assay [1] turned out to be 0.256 µM. In addition, the results for the IC50 in assay [2] (MIA PaCa-2 cells) and in assay [3] (A549 cells) were 6 nM and 26.4 µM, respectively.

Consider `C=CC(=O)N1CCN(c2nc(=O)n(-c3ccccc3C(C)C)c3cc(-c4c(O)cccc4F)c(Cl)cc23)CC1` (single isomer, unassigned) [Example 8-1-1, 6-chloro-7-(2-fluoro-6-hydroxyphenyl)-1-(2-(2-propanyl)phenyl)-4-(4-(2-propenoyl)-1-piperazinyl)-2(1H)-quinazolinone], for which the “Coupled exchange IC50” value in assay [1] is 0.172 µM. For the same compound, the IC50 was 46 nM in assay [2] (MIA PaCa-2 cells) and 69.8 µM in assay [3] (A549 cells).

In the case of `C=CC(=O)N1CCN(c2nc(=O)n(-c3ccccc3C(C)C)c3cc(-c4c(C)ccc5[nH]ncc45)c(Cl)cc23)CC1` (single isomer, unassigned) [Example 11-1-2, 6-chloro-7-(5-methyl-1H-indazol-4-yl)-1-(2-(2-propanyl)phenyl)-4-(4-(2-propenoyl)-1-piperazinyl)-2(1H)-quinazolinone], in assay [1], the “Coupled exchange IC50” value turned out to be 0.151 µM. Also, the IC50 in assay [2] (MIA PaCa-2 cells) came out at 16 nM; in assay [3] (A549 cells), 21.7 µM.

Regarding `C=CC(=O)N1CCN(c2nc(=O)n(CC3CC3)c3nc(-c4c(O)cccc4F)c(Cl)cc23)CC1` [Example 38, 6-chloro-1-(cyclopropylmethyl)-7-(2-fluoro-6-hydroxyphenyl)-4-(4-(2-propenoyl)-1-piperazinyl)pyrido[2,3-d]pyrimidin-2(1H)-one], the “Coupled exchange IC50” value in assay [1] is 0.484 µM. For the same compound, the IC50 was 1390 nM in assay [2] (setting [5]) and greater than 33.3 µM in assay [3] (Homo sapiens, A549, A549 cells).

Take `C=CC(=O)N1CCN(c2snc3c(F)c(-c4cccc5cccnc45)c(Cl)cc23)CC1` [Example 3-24, 1-(4-(5-chloro-7-fluoro-6-(quinolin-8-yl)benzo[c]isothiazol-3-yl)piperazin-1-yl)prop-2-en-1-one]: the “Coupled exchange IC50” value in assay [1] is 9.07 µM. The IC50 in assay [2] (setting [5]) was 23700 nM; in assay [3] (Homo sapiens, A549, A549 cells), greater than 100 µM.

For the compound `C=CC(=O)N1CCN(c2nc(=O)n(-c3ccccc3C(C)C)c3cc(-c4c(O)cccc4F)c(Cl)cc23)[C@@H](C)C1` (single isomer, unassigned) [Example 8-3-1], the “Coupled exchange IC50” value in assay [1] came to 0.282 µM. Moreover, the IC50 in assay [2] (MIA PaCa-2 cells) was 408 nM; in assay [3] (Homo sapiens, A549, A549 cells) it was greater than 100 µM.

With `C=CC(=O)N1CCN(c2nc(=O)n(-c3ccccc3C(C)C)c3cc(Br)c(Cl)cc23)[C@@H](C)C1` [Example 9-2, 7-bromo-6-chloro-4-((2S)-2-methyl-4-(2-propenoyl)-1-piperazinyl)-1-(2-(2-propanyl)phenyl)-2(1H)-quinazolinone], inhibition in assay [4] was half-maximal at 289 nM (IC50).

As to `C=CC(=O)N1CCN(c2snc3c(F)c(-c4cc(O)cc5ccccc45)c(Cl)cc23)C[C@H]1C` [Example 5-7, 1-((2R)-4-(5-chloro-7-fluoro-6-(3-hydroxy-1-naphthalenyl)-2,1-benzothiazol-3-yl)-2-methyl-1-piperazinyl)-2-propen-1-one], the “Coupled exchange IC50” value in assay [1] is 0.815 µM. Besides, the IC50 was 3790 nM in assay [2] (setting [5]) and greater than 100 µM in assay [3] (Homo sapiens, A549, A549 cells).
